Measured values as given in patent US11111242B2, “Pyrrolo[2,3-d]pyrimidinyl, pyrrolo[2,3-b]pyrazinyl and pyrrolo[2,3-d]pyridinyl acrylamides” (Pfizer Inc., priority 2013, dated 2021).
Read-outs that look alike come from different tables or passages of the source.

Tests used:
[1] = biological target: JAK3 enzyme (Homo sapiens (Human), UniProt P52333); test: JAK Caliper Enzyme Assay at 4 μM or 1 mM ATP; assay type: biochemical
Procedure: JAK Caliper Enzyme Assay at 4 μM or 1 mM ATP
Test article was solubilized in dimethyl sulfoxide (DMSO) to a stock concentration of 30 mM. An 11-point half log dilution series was created in DMSO with a top concentration of 600 μM. […] The compound plates were diluted 1 to 60 resulting in a top final assay compound concentration of 10 μM and a 2% DMSO concentration.
Test article and assay controls were added to a 384-well plate. Reaction mixtures contained 20 mM HEPES, pH 7.4, 10 mM magnesium chloride, 0.01% bovine serum albumin (BSA), 0.0005% Tween 20, 4 μM or 1 mM ATP and 1 μM peptide substrate. […] The assays were initiated by the addition 1 nM JAK3 enzyme and were incubated at room temperature 75 minutes for JAK3. Enzyme concentrations and incubation times were optimized for each new enzyme preps and were modified slightly over time to ensure 20%-30% phosphorylation. The assays were stopped with a final concentration of 10 mM EDTA, 0.1% Coating Reagent and 100 mM HEPES, pH=7.4. The assay plates were placed on a Caliper Life Science Lab Chip 3000 (LC3000) instrument, and each well was sampled using appropriate separation conditions to measure the unphosphorylated and phosphorylated peptide.

[2] = system: IL-15 induced P-STAT5 in human PBMC (total lymphocytes); test: PBMC IL-15 Induced P-STAT5; assay type: cell-based; details: IL-15 stimulated, read-out: PBMC IL15-pSTAT5 IC50
Outline: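 Thawed human PBMC in RPMI, preincubated 30 min at 37 °C, then IL-15 stimulated. Cells methanol-permeabilized (90%, on ice 20 min) and stained for phospho-STAT5. Read by flow cytometry, gated on total lymphocytes.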

[3] = system: IL-15 induced STAT5 phosphorylation in Human Whole Blood (total lymphocytes); test: HWB IL-15 Induced STAT5 Phosphorylation Assay; assay type: cell-based; details: IL-15 stimulated, read-out: HWB-IL15-pSTAT5 IC50
[4] = Stability of JAK3 covalent inhibitors in human whole blood; assay type: in vitro ADME; details: 37° C.; for half-life at 1 μM: both sexes, read-out: Human blood stability t1/2; for Human blood stability t1/2: 1 μM
Procedure: Human blood was collected from one male and one female healthy subjects at the Occupational Health & Wellness Center at Pfizer, Groton, Conn. and pooled for each study. Both rat and human blood was collected freshly into K2-EDTA tubes and kept on ice. An aliquot of the blood was transferred to microtubes and pre-warmed for 10 min at 37° C. using a heat block. […] An aliquot of the incubation mixture was removed at designated time points during the course of the incubation, mixed with an aliquot of acetonitrile containing an internal standard, vortexed and centrifuged. The resulting supernatants were removed and subjected to LC-MS/MS analyses to determine parent compound concentrations. Peak area ratios of the parent compound vs the internal standard were used to determine the % of parent compound remaining vs incubation time.

[5] = read-out: JAK3 (1 mM ATP) IC50, 1 mM ATP

JAK3 enzyme, sequence (P52333 whole entry, species assumed): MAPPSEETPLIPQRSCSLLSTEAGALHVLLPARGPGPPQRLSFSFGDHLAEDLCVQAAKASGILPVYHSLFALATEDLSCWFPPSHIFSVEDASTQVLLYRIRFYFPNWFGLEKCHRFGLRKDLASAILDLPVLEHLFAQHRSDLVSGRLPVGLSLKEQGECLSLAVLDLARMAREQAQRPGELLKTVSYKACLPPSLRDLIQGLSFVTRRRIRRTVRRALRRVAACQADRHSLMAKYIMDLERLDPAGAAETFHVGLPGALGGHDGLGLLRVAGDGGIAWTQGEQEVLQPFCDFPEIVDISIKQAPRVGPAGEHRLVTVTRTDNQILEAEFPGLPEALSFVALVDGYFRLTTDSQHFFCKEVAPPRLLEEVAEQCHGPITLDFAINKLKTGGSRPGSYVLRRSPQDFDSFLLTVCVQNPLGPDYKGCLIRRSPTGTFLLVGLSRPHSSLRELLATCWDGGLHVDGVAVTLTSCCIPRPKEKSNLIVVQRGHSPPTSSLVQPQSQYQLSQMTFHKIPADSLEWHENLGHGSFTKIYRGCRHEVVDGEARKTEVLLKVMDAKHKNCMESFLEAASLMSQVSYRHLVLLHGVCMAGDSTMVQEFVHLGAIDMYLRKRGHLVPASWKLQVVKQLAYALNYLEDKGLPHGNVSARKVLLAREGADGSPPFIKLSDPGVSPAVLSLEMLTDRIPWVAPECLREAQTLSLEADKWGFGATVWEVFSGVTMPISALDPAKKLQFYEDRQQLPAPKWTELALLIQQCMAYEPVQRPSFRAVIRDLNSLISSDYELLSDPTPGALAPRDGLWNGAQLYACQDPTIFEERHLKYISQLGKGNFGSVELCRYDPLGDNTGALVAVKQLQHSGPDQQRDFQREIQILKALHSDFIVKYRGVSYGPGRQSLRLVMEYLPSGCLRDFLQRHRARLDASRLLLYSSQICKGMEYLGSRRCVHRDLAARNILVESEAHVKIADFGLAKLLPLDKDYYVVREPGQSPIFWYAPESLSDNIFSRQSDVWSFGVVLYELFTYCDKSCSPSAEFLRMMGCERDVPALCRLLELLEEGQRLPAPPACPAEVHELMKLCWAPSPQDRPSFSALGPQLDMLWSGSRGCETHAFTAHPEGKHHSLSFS

| SMILES | IC50 ([1]; read-out: JAK3 (4 μM ATP) IC50, 4 μM ATP) [nM] | IC50 [1, 5] [nM] | IC50 [2] [nM] | IC50 ([3]; Lymphocyte) [nM] | half-life at 1 μM [4] [h] | IC50 [3] [nM] | Human blood stability t1/2 [4] [h] | IC50 ([2]; Homo sapiens, PBMC) [nM] |
| --- | --- | --- | --- | --- | --- | --- | --- | --- |
| C=CC(=O)N1CCC(Nc2cnc3[nH]cc(C(=O)N[C@@H](C)C(=O)NCCC#N)c3n2)CC1 [Example 264, 2-[(1-acryloylpiperidin-4-yl)amino]-N-{(2S)-1-[(2-cyanoethyl)aminop]-oxopropan-2-yl}-5H-pyrrolo[2,3-b]pyrazine-7-carboxamide] | 2.6 | 226 | 4480 |  |  |  |  |  |
| C=CC(=O)N1C[C@@H](O)C[C@@H](Nc2ncnc3[nH]cc(Cl)c23)C1 [Example 162, 1-{(3R,5S)-3-[(5-Chloro-7H-pyrrolo[2,3-d]pyrimidin-4-yl)amino]-5-hydroxypiperidin-1-yl}prop-2-en-1-one] |  |  | 361 | 1000 | > 6 |  |  |  |
| C=CC(=O)N1CCC(Oc2cnc3[nH]cc(-c4cnn(C)c4)c3n2)CC1 [Example 218, 1-(4-{[7-(1-methyl-1H-pyrazol-4-yl)-5H-pyrrolo[2,3-b]pyrazin-2-yl]oxy}piperidin-1-yl)prop-2-en-1-one] |  |  | 345 |  |  | 6190 | >6 |  |
| C=CC(=O)N1C[C@@H](Nc2ncnc3[nH]ccc23)[C@@H]2CC[C@H]1C2 (racemic) [Example 116, Rac-1-((1R,4R,5S)-4-(7H-pyrrolo[2,3-d]pyrimidin-4-ylamino)-2-azabicyclo[3.2.1]octan-2-yl)prop-2-en-1-one] |  |  |  | > 10000 | 4.68 |  |  | > 10000 |
| C=CC(=O)N1CCN(c2cnc3[nH]cc(C(=O)NC(C)C)c3n2)C[C@H]1CC [Example 311, 2-[(3R)-4-acryloyl-3-ethylpiperazin-1-yl]-N-(propan-2-yl)-5H-pyrrolo[2,3-b]pyrazine-7-carboxamide] |  | 220 | 696 |  |  |  |  |  |
| C=CC(=O)N1CC2CCN(c3cnc4[nH]cc(C(=O)NC(C)C)c4n3)C2C1 (centres unmarked) [Example 178, 2-(5-acryloylhexahydropyrrolo[3,4-b]pyrrol-1(2H)-yl)-N-(propan-2-yl)-5H-pyrrolo[2,3-b]pyrazine-7-carboxamide] |  |  | 208 |  |  | 2560 | 2.38 |  |
